In data set [1] the test system is platelets. Put plainly: S-59 uptake by platelets and effect of pre-incubation on adsorption kinetics (Example 23). The note with it: FIG. 25A. Type of data set: in vitro ADME, human. Here is the method:
As discussed previously, S-59 uptake by platelets can occur over a period of several hours before saturation occurs. FIG. 25A graphically depicts S-59 (Co=50 μM) uptake by platelets over time (top) and S-59 release by platelets over time (bottom). As shown in the top graph, S-59 equilibrium is achieved at approximately two hours.
This example is directed to the question of whether partitioning of S-59 into platelets has a significant effect on adsorption kinetics. The adsorption kinetics of PC pre-incubated with S-59 for 24 hours prior to adsorption were compared to adsorption kinetics in PC without a pre-incubation period. […] Samples of PC were removed at various time points and analyzed for levels of residual S-59.

Data set [2] is described as follows: Batch adsorption of 3H-S-59 and photoproducts from illuminated PC, residual radioactivity (Table F). Type of data set: physicochemical. Here is the method: The removal of residual S-59 and S-59 photoproducts from illuminated PC by batch adsorption was investigated. […] Two separate platelet units were treated for each adsorbent; one unit was agitated for 3 hours before the platelets were separated from the adsorbent and transferred to another bag, and the other platelet unit was left in contact with the adsorbent for 4 days. Samples were removed from the units before treatment, after 3 hours of contact with the adsorbent, and on day 4.

A short description of data set [3]: Batch adsorption of S-59 and photoproducts from illuminated PC, HPLC (Examples 27, 28). Type of data set: physicochemical. How it is done: The peak corresponding to S-59 is present in the chromatograms representing non-illuminated S-59 (top) and illuminated S-59 (middle) at a retention time of approximately 12 minutes. The other peaks in the chromatogram representing illuminated S-59 (middle) (besides the injection peak at about 3 minutes) correspond to S-59 photoproducts formed during illumination. Note that the peaks appear at time (t)=18 minutes and t=20 minutes are plasma species and are not related to S-59. The peaks which remain in the bottom panel are not S-59 photoproducts, so removal of S-59 and photoproducts was essentially complete in this case as indicated by HPLC (i.e., non-detectable by HPLC).

The test system of data set [4] is Pseudomonas. The data set can be described thus: Bacterial inactivation, colony forming units. Type of data set: cell-based. The note with it: 16 μM; 5 J/cm^2 irradiation; starting titer 6.5 logs. Here is the method: The bacteria, a strain of Pseudomonas, was inoculated into LB with a sterile loop and grown overnight in a shaker at 37° C. Based on the approximation that one OD at 610 mn is equivalent to 5×10^8 colony forming units (cfu)/mL, a 1:10 dilution of the culture was measured on a spectrophotometer, (manufactured by Shimatsu). The bacterial culture was added to a solution of 15% fetal bovine serum in DMEM to a final bacteria concentration of approximately 10^6/mL. An aliquot (0.8 mL) was transferred to a 1.5 mL snap-top polyethylene tube. An aliquot (0.004-0.040 mL) of the test compound stock solution prepared in water, ethanol or dimethylsulfoxide at 0.80-8.0 mM was added to the tube. Compounds were tested at a concentration of 16 μM. The tubes were placed in a light device as described in EXAMPLE 1 and irradiated with 1.3 J/cm^2, 1.2 J/cm^2, and finally 2.5 J/cm^2, for a total of 5 J/cm^2. 150 μL were removed for testing after each pulse period. Sterile 13 mL dilution tubes were prepared; each test compound required one tube with 0.4 mL of LB broth and four tubes containing 0.5 mL of LB broth. […] The colony forming units were then counted the following morning and the titer of the phage remaining after phototreatment was calculated based on the dilution factors. […]

The subject of data set [5] is DNA. The note with it: Isaacs et al., NCI Monograph 66:21 (1984); cited from earlier work.

As for `Cc1oc2c(C)c3oc(=O)cc(C)c3cc2c1COCCN` [Compound 2, 4′-(4-amino-2-oxa)butyl-4,5′,8-trimethylpsoralen], the “time to S-59 uptake equilibrium in platelets” value in data set [1] is recorded as “approximately two”. For the same compound, in data set [2] (3H-S-59, illuminated PC), the “counts as 3H exchanged water” value was “about 10%”, the “counts associated with plasma macromolecules” value is “about 18%” and the “counts associated with platelet macromolecules” value is reported as “about 15%”. The non-adsorbed radioactivity in data set [2] (3H-S-59, illuminated PC treated with adsorbent for 4 days) is given as 36-37%. Moreover, the “removal of S-59” value in data set [3] (at 2 hours, Amberlite XAD-4 10 g/300 mL, illuminated platelets in 35% plasma/[…]% PAS III, HPLC) is listed as “greater than 99%”. In addition, the “S-59 and low molecular weight photoproducts adsorbed from PCs” value in data set [3] (batch devices, appropriate adsorbents) was “greater than 99%”.

For the compound `Cc1oc2c(C)c3oc(=O)cc(C)c3cc2c1CN` [AMT, 4′-Aminomethyl-4,5′,8-trimethylpsoralen, reference compound], in data set [4], the “log kill of Pseudomonas” value was 5.2 logs. For the same compound, the “DNA base pairs per AMT adduct (up to 1 adduct per)” value in data set [5] is 3.5 DNA base pairs.

The values above are taken from patent US6544727B1, “Methods and devices for the removal of psoralens from blood products” (Cerus Corporation, priority 1995, dated 2003).
